In patent publication US9540299B2, “MTOR-independent activator of TFEB for autophagy enhancement and uses thereof” (Hong Kong Baptist University, priority 2015, dated 2017):

Biological target: T1, TFEB (Mus musculus, UniProt Q9R210)
T1 construct: the expression and distribution of endogenous TFEB in N2a cells treated with curcumin and its analogs are determined; endogenous in cells; host or cells: N2a cells
T1 sequence (Q9R210 1-475): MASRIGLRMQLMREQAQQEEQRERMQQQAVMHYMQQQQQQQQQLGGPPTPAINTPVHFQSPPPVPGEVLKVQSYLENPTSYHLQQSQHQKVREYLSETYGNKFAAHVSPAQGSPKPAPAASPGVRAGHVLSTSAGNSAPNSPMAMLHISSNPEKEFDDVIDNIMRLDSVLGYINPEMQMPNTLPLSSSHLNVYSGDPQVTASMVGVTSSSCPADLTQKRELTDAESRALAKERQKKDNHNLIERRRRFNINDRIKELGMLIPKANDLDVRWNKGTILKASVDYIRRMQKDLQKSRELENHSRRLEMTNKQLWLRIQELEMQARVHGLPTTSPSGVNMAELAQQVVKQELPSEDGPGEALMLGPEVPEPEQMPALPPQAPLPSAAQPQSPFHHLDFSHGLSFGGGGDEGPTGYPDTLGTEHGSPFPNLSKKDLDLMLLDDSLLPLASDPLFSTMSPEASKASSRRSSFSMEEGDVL
Assay: Expression and distribution of endogenous TFEB in N2a cells (immunostaining, western blot)
Type: cell-based
Conditions: for nuclear accumulation of endogenous TFEB by immunofluorescence compared to vehicle control / nuclear translocation of endogenous TFEB, cytosolic and nuclear fractions by Western blots / nuclear translocation (distribution) of endogenous TFEB / total levels (expression) of endogenous TFEB: N2a cells; for nuclear accumulation of endogenous TFEB by immunofluorescence compared to vehicle control / nuclear translocation of endogenous TFEB, cytosolic and nuclear fractions by Western blots: 1 μM, 12 hours; for nuclear translocation (distribution) of endogenous TFEB / total levels (expression) of endogenous TFEB: 12 h, curcumin 10 μM, analogs 1 μM
Description: Cells were treated with curcumin (Cur, 10 μM), A2, B3 and C1 (1 μM) for 12 h. […] Data is quantified by ImageJ software and is presented as mean±SD of three replicates for each treatment conditions. At least 1000 cells are analyzed in each treatment group. *p<0.05 vs. the control (0.1% DMSO). FIG. 4C is a western blot showing the expression of endogenous TFEB. […] Data are presented as the mean±SD from three independent experiments. *p<0.05 vs. the control (0.1% DMSO). FIG. 4E is fluorescence images showing expression of 3×Flag-TFEB in Hela cells having treated with Cur (10 μM), A2, B3 and C1 (1 μM) for 12 h. Torin 1 (1 μM) treatment for 2 h is used as a positive control. Cells were fixed and stained with anti-Flag antibody. […] FIG. 4G is the western blot showing the expression of Flag-tagged TFEB in the cytosolic (Cyt.) and nuclear (Nuc.) fractions. ACTB and H3F3A (H3 histone, family 3A) are used as loading control of cytoplasmic and nuclear fraction, respectively. FIG. 4H is showing the relative intensity of TFEB in the cytosolic and nuclear fractions. Data are presented as the mean±SD from three independent experiments. *p<0.05 vs. the control (0.1% DMSO).
N2a cells are treated with E2, E3 and E4 (1 μM) for 12 hours. Torin 1 (1 μM) treatment for 2 hours is used as a positive control. The cells are fixed and stained with TFEB antibody (green) and DAPI (blue) (FIG. 16A). TFEB translocate into nucleus are quantified. Quantification data (FIG. 16B) are presented as mean±SD of three replicates in a representative experiment. At least 500 cells are analyzed in each treatment group.
N2a cells are treated with E2, E3, and E4 (1 μM) for 12 hours. Torin 1 (1 μM) treatment for 2 hours is used as a positive control. The expression of endogenous TFEB in the cytosolic (Cyt.) and nuclear (Nuc.) fractions are determined by western blotting (FIG. 17A) and quantified (FIG. 17B). TUBB (β-tubulin) and H3F3A (H3 histone, family 3A) are used as loading control of cytoplasmic and nuclear fraction respectively. Quantification data are presented as the mean±SD from three independent experiments. *p<0.05 vs. the control (0.1% DMSO).
Cells are lysed on ice in 1× Lysis Buffer (9803, Life Technologies) with complete protease inhibitor mixture (04693124001, Roche Applied Science). Animal tissues are homogenized in nine volumes of ice-cold PBS supplemented with protease inhibitors. Cytosolic and nuclear fractions are isolated using protocols similar to those described previously. Anti-Flag or TFEB antibody is added to the whole cell lysates and Dynabeads® Protein G (10003D, Life Technologies) is used for immunoprecipitation. Proteins are separated by 10-15% SDS-PAGE, transferred, and blotted with the antibodies described. The blots are then incubated with secondary antibodies or the Clean-Blot IP Detection Reagent (21230, Thermo Scientific) at room temperature for 1 h. The protein signals are detected by ECL kit (32106, Pierce) and quantified using ImageJ software.
Cells are seeded on coverslips placed in 24-well plates. After drug treatment, slices are fixed with 3.7% paraformaldehyde, permeabilized in 0.2% Triton X-100 and blocked with 5% BSA. After blocking, the slices are stained with anti-TFEB (1:200) or anti-Flag (1:500) antibodies overnight at 4° C. Alexa Fluor®488 (green) or Alexa Fluor®594 (red) secondary antibodies (1:500) are added for 1 h at room temperature. After nuclear staining with DAPI, the slices are mounted with FluorSave reagent (345789, Calbiochem). Cells are visualized using an Eclipse 80i fluorescence microscope (Nikon Instruments Inc.)
Cells are lysed on ice in 1× Lysis Buffer (9803, Life Technologies) with complete protease inhibitor mixture (04693124001, Roche Applied Science) and phosphatase inhibitor (B15001, Biotool). Cytosolic and nuclear fractions are isolated using protocols similar to those described previously. Proteins are separated by 10-15% SDS-PAGE, transferred, and blotted with the antibodies described. […]

SMILES | activity to promote TFEB nucleus translocation, comparison among E series analogs | nuclear accumulation of endogenous TFEB by immunofluorescence compared to vehicle control | nuclear translocation of endogenous TFEB, cytosolic and nuclear fractions by Western blots | nuclear translocation (distribution) of endogenous TFEB | total levels (expression) of endogenous TFEB
O=C(/C=C/c1ccccc1I)/C=C/c1ccccc1I [E4] | best activity | striking nuclear accumulation | potently induce |  | 
O=C(/C=C/c1ccccc1Cl)/C=C/c1ccccc1Cl [E2] |  | striking nuclear accumulation | potently induce |  | 
O=C(/C=C/c1ccccc1Br)/C=C/c1ccccc1Br [E3] |  | striking nuclear accumulation | potently induce |  | 
O=C(/C=C/c1ccc(O)cc1)/C=C/c1ccc(O)cc1 [B3, 1,5-bis(4-hydroxyphenyl)penta-1,4-dien-3-one] |  |  |  | no effects | no effects
O=C(/C=C/c1cccc(C(F)(F)F)c1)/C=C/c1cccc(C(F)(F)F)c1 [A2, 1,5-bis(3-(trifluoromethyl)phenyl)penta-1,4-dien-3-one] |  |  |  | no effects | no effects
COc1cc(/C=C/C(=O)CC(=O)/C=C/c2ccc(O)c(OC)c2)ccc1O [curcumin, Curcumin, reference compound] |  |  |  | no effects | no effects
COc1ccccc1/C=C/C(=O)/C=C/c1ccccc1OC [C1, 1,5-bis(2-methoxyphenyl)penta-1,4-dien-3-one] |  |  |  | promotes | increases
